Experimental findings from US20190083521A1, “COMBINATION THERAPY FOR TREATING CANCER” (Epizyme, Inc., priority 2014, published 2019) are described below.

In one test the test system is THP-1 (MLL-AF9) cells. The experiment in a line: Example 7 retest: EPZ-5676 pre-treatment, second compound 72 h, Cell Titer Glo, growth inhibition. The class given is cell-based. The note with it: 240 h, single agent, read-out: EPZ-5676 10-day IC50. (Cellular ATP, detected with luciferase, serves as a proxy for viable cell number.)
Test [1] relates to OCI-AML-4 (MLL-ENL) cells. Kind of test: Example 7 primary screen: 300 nM EPZ-5676 pre-treatment, second compound 72 h, ATPLite, GI100 shift. The class given is cell-based. Particulars: 264 h; OCI-AML-4; single agent; read-out: EPZ-5676 11-day (Primary screen) IC50. Here is the method: Cells were split using EPZ-5676 or DMSO containing growth media and further incubated for an additional 3-day pre-treatment time. Cells were finally seeded in growth media containing EPZ-5676 or DMSO in 384-well plates at 500 cell/well density. Cells were then equilibrated in incubators for 24 hours before treatment with a second compound. Treated assay plates were incubated with a second compound for 72 hours. After this time, plates were developed for endpoint analysis using ATPLite to measure ATP content, which is used as an indicator of cell viability.
“N/D” means the GI100 of the second compound could not be determined for both conditions and “-” means not tested.
Growth Inhibition (GI) as a measure of cell viability: The cell viability of vehicle was measured at the time of dosing the second agent (T0) and after seventy-two hours (T72). A GI reading of 0% represents no growth inhibition—cells treated with test compound as compared to T72 vehicle signals were measured. […] A GI 200% represents complete death of all cells in the culture well. Compounds reaching an activity plateau of GI 200% are considered cytotoxic. GI is calculated by applying the following test and equation: […]

Test [2] concerns MOLM-13 (MLL-AF9) cells. Kind of test: Combination proliferation assay with Compound A2 (CellTiter-Glo, Chou-Talalay CI). The class given is cell-based, human. The note with it: for Combination effect, reverse order of addition with Ara-C washout: washed out, then Compound A2 7 days; for Combination effect with Compound A2 (Table 2): MOLM-13 MLL-AF9. Summed up:
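Viability by CellTiter-Glo ATP luminescence; fraction affected versus DMSO controls, combination index by Chou-Talalay (CI <1 synergy, >1 antagonism).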

For test [3], the system named is MOLM-13 (MLL-AF9) cells. Kind of test: Example 7 primary screen: 300 nM EPZ-5676 pre-treatment, second compound 72 h, ATPLite, GI100 shift. The class given is cell-based, human. The note with it: Homo sapiens, 264 h; MOLM-13; single agent; read-out: EPZ-5676 11-day (Primary screen) IC50.
The test system of test [4] is SKM-1 (non-MLLr) cells. The description is as above. The note with it: Homo sapiens, 264 h; SKM-1; single agent; read-out: EPZ-5676 11-day (Primary screen) IC50. The class given is cell-based, human.
A further test deals with RS4-11 (MLL-AF4) cells. The experiment in a line: Example 7 retest: EPZ-5676 pre-treatment, second compound 72 h, Cell Titer Glo, growth inhibition. The note with it: Homo sapiens, 240 h, single agent, read-out: EPZ-5676 10-day IC50. The class given is cell-based.
Test [5] relates to SKM-1 (non-MLLr) cells. The description is as above. The class given is cell-based. The note with it: Homo sapiens, 240 h, single agent.
Test [6] relates to OCI-AML-4 (MLL-ENL) cells. The description is as above. The class given is cell-based. The note with it: 240 h, single agent.
A further test has as its system ML-2 (MLL-AF6) cells. The description is as above. The class given is cell-based. The note with it: 240 h, single agent, read-out: EPZ-5676 10-day IC50.
Test [7] relates to MOLM-13 (MLL-AF9) cells. Described as above. The class given is cell-based. Particulars: Homo sapiens, 240 h, single agent.
The test system of another test is KOPM-88 (MLL-PTD) cells. The experiment in a line: Combination proliferation assay with Compound A2 (Chou-Talalay CI). Particulars: KOPM-88 (MLL-PTD). The class given is cell-based, human. Here is the method:
(§1) Graphs representing values of combination index (CI) versus Fractional effect (Fa) known as Fa-CI plots were generated and synergy was evaluated.
(§2) Viability was determined using CellTiter-Glo® (Promega).

Another test relates to EOL-1 (MLL-PTD) cells. The description is as above. The note with it: EOL-1 (MLL-PTD). The class given is cell-based, human. On the procedure: as §1, §2
Test [8] deals with MOLM-13 cells. Kind of test: CD11b and CD14 differentiation marker expression by flow cytometry. The class given is cell-based, human. The note with it: single agents. Here is the method:
(§3) A Guava EasyCyte HT™ flow cytometer was used to measure DNA content, Annexin V staining and cell surface expression of CD14 and CD11b markers on Days 10 and 14.
(§4) On Day 0 MOLM-13 cells are seeded at 3,000 cells/mL. On Day 7 and Day 10 MOLM-13 cells are counted and reseeded at 50,000 cells/mL. […] On Day 10 They were redosed again. On Day 14 the experiment was terminated. Cells were sampled for CD14 and CD11b analysis on Days 7, 10 and 14.
On day 7, 10, and 14, cells were collected for analysis. The cells were prepared by washing twice in PBS, followed by fixation in 4% formaldehyde for ten minutes at 37° C. After fixation cells were washed and blocked with blocking buffer for 10 minutes at room temperature. Cells were then incubated in presence of anti-CD14, anti-CD11b or anti-IgG antibody for 1 hour at room temperature while rotating. Cells were washed, re-suspended in PBS and 5,000 events were analyzed using ExpressPro software on the GuavaCyte Plus System.

Test [9] concerns MOLM-13 cells. Kind of test: Flow cytometric analysis of cell cycle and Annexin V (apoptosis). The class given is cell-based, human. On the procedure: as §3, §4
To evaluate the fraction of cells in each cell cycle, flow cytometric analysis was performed. FACS analysis for detection of cell death by apoptosis, and cell cycle was performed.
Cells were harvested on days 7, 10 and 14 and split to allow simultaneous analysis of cell cycle and Annexin V staining. Apoptosis was determined using the Guava Nexin Assay (Millipore 4500-0450) and cells were prepared according to the manufacturer's recommendations. Samples were analyzed using the Guava EasyCyte Plus System (Millipore). Cells for cell cycle analysis were pelleted by centrifugation at 200×g for 5 minutes at 4° C., washed twice with ice cold PBS then fixed with 70% ice cold ethanol. All samples were analyzed together at end of experiment. Following fixation cells were washed with PBS and stained with the Guava cell cycle reagent (Millipore 4500-0220) for 30 minutes. Samples were analyzed using the Guava EasyCyte Plus System (Millipore).

A further test deals with MV4-11 (MLL-AF4) cells. The experiment in a line: Combination proliferation assay with Compound A2 (CellTiter-Glo, Chou-Talalay CI). The class given is cell-based, human. Summed up: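 Viability by CellTiter-Glo ATP luminescence; fraction affected versus DMSO controls; combination index by Chou-Talalay method (CI <1 synergy, >1 antagonism).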
Test [10] has as its system SKM-1 (non-MLL-rearranged AML) cells. The test is described as above. The class given is cell-based, human. On the procedure:
as §1, §2
MV4-11 cells were maintained in IMDM supplemented with 10% fetal bovine serum. MOLM-13 and SKM-1 cells were maintained in Roswell Park Memorial Institute medium (RPMI) supplemented with 10% fetal bovine serum. They were cultured in flasks or plates in a humidified 5% CO2 atmosphere.
Proliferation studies were performed using MOLM-13, MV4-11 and SKM-1 cell lines in vitro to evaluate the cancer cell killing effect of a combination of two agents together on cell growth. Initial proliferation studies were performed to determine the IC50 values of a given compound in each cell line. The cell counts were measured by ATP quantitation using the Promega Cell Titer Glo kit and luminescence values correspond to the amount of ATP in a given well.
Compounds evaluated for synergy in the co-treatment phase were tested in a range which was bracketed around the IC50's. The compounds were plated to a 96 well plate in a matrix format which includes increasing concentrations of each drug in the combination in a constant ratio, in addition to the effect of each compound alone in the study. Cells were seeded and grown in the log-linear phase for 3 or 7 days in the cotreatment phase. Maximum and minimum inhibition (DMSO alone) controls were used in each plate to calculate fraction affected (Fa) of a test well. DMSO concentration was kept at 0.1% v/v. The drug combination analysis was performed utilizing the Chou-Talalay method. Synergy was determined using the software package Calcusyn by Biosoft. The combination index (CI) is the term used to describe the level of synergy or antagonism in a given test system. A combination index less than one indicates synergy, and a CI greater than one indicates antagonism.
The drug combination analysis was performed using the Chou-Talalay method. Graphs representing values of combination index (CI) versus Fractional effect (Fa) known as Fa-CI plots were generated and synergy was evaluated.

Where [11] appears, read: 14 day treatment, 156 nM Compound A2 or 63 nM Ara-C.

pIC50: −log10 of the molar value. Entries after “also recorded” stand apart in the source; their conditions may differ. Some results are limits rather than exact numbers.

For orientation: pIC50 means the IC50 on a negative log10 scale, so that one unit is a factor of ten. With `CC(C)N(C[C@H]1O[C@@H](n2cnc3c(N)ncnc32)[C@H](O)[C@@H]1O)[C@H]1C[C@@H](CCc2nc3cc(C(C)(C)C)ccc3[nH]2)C1` [Compound A2, pinometostat], the negative logarithm of the IC50 (pIC50) with THP-1 (MLL-AF9) cells is under 5.52; in test [1], under 5.52; in the test with MOLM-13 (MLL-AF9) cells [3] it was 6.82; in the test on SKM-1 (non-MLLr) cells [4], under 5.52; in the test on RS4-11 (MLL-AF4) cells it was under 5.52; in the test with SKM-1 (non-MLLr) cells [5] (SKM-1 (non-MLLr), read-out: EPZ-5676 10-day IC50) it was under 5.52. Moreover, the pIC50 with SKM-1 (non-MLLr) cells [5] (SKM-1, read-out: EPZ-5676 10-day (Retest) IC50) is under 5.52; in [6] (OCI-AML-4 (MLL-ENL), read-out: EPZ-5676 10-day IC50), under 5.52; in test [6] (OCI-AML-4, read-out: EPZ-5676 10-day (Retest) IC50) it was under 5.52; with ML-2 (MLL-AF6) cells it was under 5.52; in the test on MOLM-13 (MLL-AF9) cells [7] (MOLM-13 (MLL-AF9), read-out: EPZ-5676 10-day IC50) it was 7.12; in the test with MOLM-13 (MLL-AF9) cells [7] (MOLM-13, read-out: EPZ-5676 10-day (Retest) IC50), 7.12. For the same compound, the “Combination effect with T0070907 (PPAR antagonist)” value in the test on MOLM-13 (MLL-AF9) cells [2] (MOLM-13, co-treatment model (Example 8)) is recorded as “Synergy (Drug synergy was statistically defined by CI values less than 1)”.
With `Nc1ccn([C@@H]2O[C@H](CO)[C@@H](O)[C@@H]2O)c(=O)n1` [Ara-C, cytarabine], the “Combination effect with Compound A2 (Table 3)” value with KOPM-88 (MLL-PTD) cells and in the test with EOL-1 (MLL-PTD) cells was “Synergy (Drug synergy was statistically defined by CI values less than 1)” in each case. For the same compound, the “Differentiation markers CD11b and CD14” value in the test with MOLM-13 cells [8] is “time and concentration dependent up-regulation”. In addition, in the test with MOLM-13 (MLL-AF9) cells [2] (MOLM-13 (MLL-AF9), 7 Day Cotreatment Model), the “Combination effect with Compound A2 (Table 4)” value is reported as “Strong Synergy”. Also, the “Combination effect with Compound A2” value was “Synergy (A combination index less than one indicates synergy)” with MOLM-13 (MLL-AF9) cells [2] (MOLM-13, 4 + 3 Model (4 days Compound A2 pretreatment, then 3 days co-treatment)); “Synergy (A combination index less than one indicates synergy)” with MOLM-13 (MLL-AF9) cells [2] (MOLM-13, 7 Day Cotreatment (Example 1)); “Synergy (A combination index less than one indicates synergy)” with MV4-11 (MLL-AF4) cells (MV4-11, 7 Day Cotreatment (Example 1)). Moreover, the “Combination effect, reverse order of addition” value with MOLM-13 (MLL-AF9) cells [2] (MOLM-13, Ara-C 3 days, then Compound A2 and Ara-C co-treatment 7 days) is on record as “Synergy (Drug synergy was statistically defined by CI values less than 1)”. Moreover, the “Combination effect, reverse order of addition with Ara-C washout” value was “Combination benefit is maintained” with MOLM-13 (MLL-AF9) cells [2] (MOLM-13, Ara-C 3 days) and “essentially the same level of synergistic cell killing” in the test on MOLM-13 (MLL-AF9) cells [2] (MOLM-13, Ara-C 3 days, listed as cytarabine). In addition, the “Antiproliferative combination effect after Compound A2 washout” value was “durable combination benefit; also recorded: maintained” in the test with MOLM-13 (MLL-AF9) cells [2] (MOLM-13, Compound A2 washed out prior to addition of the SOC agent) and “maintained” with MV4-11 (MLL-AF4) cells (MV4-11, Compound A2 washed out prior to addition of the SOC agent). The “Antiproliferative combination effect with Compound A2” value in the test on MOLM-13 (MLL-AF9) cells [2] (MOLM-13, pre-treatment model, no Compound A2 washout) is reported as “synergistic”; in the test on MV4-11 (MLL-AF4) cells (MV4-11, pre-treatment model, no Compound A2 washout) it was “synergistic”. Moreover, the “Combination effect with Compound A2 (Table 2)” value with MOLM-13 (MLL-AF9) cells [2] is given as “Synergy (Drug synergy was statistically defined by CI values less than 1)”; in the test with MOLM-13 (MLL-AF9) cells [2] (listed as cytarabine), “synergistically”; in the test with MV4-11 (MLL-AF4) cells (MV4-11 MLL-AF4) it was “synergistically”; in [10] (SKM-1 AML: Non-rearranged) it was “did not act synergistically”. The “Apoptosis in combination with Compound A2” value in the test on MOLM-13 cells [9] (156 nM Compound A2 + 63 nM Ara-C) is reported as “enhance apoptosis”. Further, the “Sub-G1 cell population in combination with Compound A2” value in the test on MOLM-13 cells [9] (156 nM Compound A2 + 63 nM Ara-C, at 10 and 14 days) is given as “significant increase”. Moreover, the “Apoptotic cell population, single agent” value in the test on MOLM-13 cells [9] (setting [11]) is on record as “modest increase”. The “Sub-G1 cell population, single agent” value in the test with MOLM-13 cells [9] (setting [11]) is recorded as “minimal effect”. Besides, the “Effect of Compound A2 on antiproliferative activity of the second agent” value in [10] (SKM-1 non-MLL-rearranged (Example 5)) is reported as “did not affect”.
